The source of these data is ChEMBL document CHEMBL4507266, “Data for DCP probe BAY-784” (2021).

In data set [1] the target is L-type calcium channel, dihydropyridine site (Cav1.2 alpha-1C) (Homo sapiens, UniProt Q13936). The experiment in a line: Inhibition of Calcium Channel L-Type, Dihydropyridine at 10 µM in the Eurofins-Panlabs radioligand binding assay (Eurofins_assay_214600). Details: ligand concentration 0.1 nM, non-specific ligand with concentration 1 µM Nitrendipine, incubation time 90 min, incubation temperature 25 °C. The conditions noted are these: Wistar, rat, rat cerebral cortex preparation, probe [3H] Nitrendipine, 0.1 nM; compound concentration 10 uM; target entry is the homologue from another species.
Chain of L-type calcium channel, dihydropyridine site (Cav1.2 alpha-1C) (Q13936 whole entry): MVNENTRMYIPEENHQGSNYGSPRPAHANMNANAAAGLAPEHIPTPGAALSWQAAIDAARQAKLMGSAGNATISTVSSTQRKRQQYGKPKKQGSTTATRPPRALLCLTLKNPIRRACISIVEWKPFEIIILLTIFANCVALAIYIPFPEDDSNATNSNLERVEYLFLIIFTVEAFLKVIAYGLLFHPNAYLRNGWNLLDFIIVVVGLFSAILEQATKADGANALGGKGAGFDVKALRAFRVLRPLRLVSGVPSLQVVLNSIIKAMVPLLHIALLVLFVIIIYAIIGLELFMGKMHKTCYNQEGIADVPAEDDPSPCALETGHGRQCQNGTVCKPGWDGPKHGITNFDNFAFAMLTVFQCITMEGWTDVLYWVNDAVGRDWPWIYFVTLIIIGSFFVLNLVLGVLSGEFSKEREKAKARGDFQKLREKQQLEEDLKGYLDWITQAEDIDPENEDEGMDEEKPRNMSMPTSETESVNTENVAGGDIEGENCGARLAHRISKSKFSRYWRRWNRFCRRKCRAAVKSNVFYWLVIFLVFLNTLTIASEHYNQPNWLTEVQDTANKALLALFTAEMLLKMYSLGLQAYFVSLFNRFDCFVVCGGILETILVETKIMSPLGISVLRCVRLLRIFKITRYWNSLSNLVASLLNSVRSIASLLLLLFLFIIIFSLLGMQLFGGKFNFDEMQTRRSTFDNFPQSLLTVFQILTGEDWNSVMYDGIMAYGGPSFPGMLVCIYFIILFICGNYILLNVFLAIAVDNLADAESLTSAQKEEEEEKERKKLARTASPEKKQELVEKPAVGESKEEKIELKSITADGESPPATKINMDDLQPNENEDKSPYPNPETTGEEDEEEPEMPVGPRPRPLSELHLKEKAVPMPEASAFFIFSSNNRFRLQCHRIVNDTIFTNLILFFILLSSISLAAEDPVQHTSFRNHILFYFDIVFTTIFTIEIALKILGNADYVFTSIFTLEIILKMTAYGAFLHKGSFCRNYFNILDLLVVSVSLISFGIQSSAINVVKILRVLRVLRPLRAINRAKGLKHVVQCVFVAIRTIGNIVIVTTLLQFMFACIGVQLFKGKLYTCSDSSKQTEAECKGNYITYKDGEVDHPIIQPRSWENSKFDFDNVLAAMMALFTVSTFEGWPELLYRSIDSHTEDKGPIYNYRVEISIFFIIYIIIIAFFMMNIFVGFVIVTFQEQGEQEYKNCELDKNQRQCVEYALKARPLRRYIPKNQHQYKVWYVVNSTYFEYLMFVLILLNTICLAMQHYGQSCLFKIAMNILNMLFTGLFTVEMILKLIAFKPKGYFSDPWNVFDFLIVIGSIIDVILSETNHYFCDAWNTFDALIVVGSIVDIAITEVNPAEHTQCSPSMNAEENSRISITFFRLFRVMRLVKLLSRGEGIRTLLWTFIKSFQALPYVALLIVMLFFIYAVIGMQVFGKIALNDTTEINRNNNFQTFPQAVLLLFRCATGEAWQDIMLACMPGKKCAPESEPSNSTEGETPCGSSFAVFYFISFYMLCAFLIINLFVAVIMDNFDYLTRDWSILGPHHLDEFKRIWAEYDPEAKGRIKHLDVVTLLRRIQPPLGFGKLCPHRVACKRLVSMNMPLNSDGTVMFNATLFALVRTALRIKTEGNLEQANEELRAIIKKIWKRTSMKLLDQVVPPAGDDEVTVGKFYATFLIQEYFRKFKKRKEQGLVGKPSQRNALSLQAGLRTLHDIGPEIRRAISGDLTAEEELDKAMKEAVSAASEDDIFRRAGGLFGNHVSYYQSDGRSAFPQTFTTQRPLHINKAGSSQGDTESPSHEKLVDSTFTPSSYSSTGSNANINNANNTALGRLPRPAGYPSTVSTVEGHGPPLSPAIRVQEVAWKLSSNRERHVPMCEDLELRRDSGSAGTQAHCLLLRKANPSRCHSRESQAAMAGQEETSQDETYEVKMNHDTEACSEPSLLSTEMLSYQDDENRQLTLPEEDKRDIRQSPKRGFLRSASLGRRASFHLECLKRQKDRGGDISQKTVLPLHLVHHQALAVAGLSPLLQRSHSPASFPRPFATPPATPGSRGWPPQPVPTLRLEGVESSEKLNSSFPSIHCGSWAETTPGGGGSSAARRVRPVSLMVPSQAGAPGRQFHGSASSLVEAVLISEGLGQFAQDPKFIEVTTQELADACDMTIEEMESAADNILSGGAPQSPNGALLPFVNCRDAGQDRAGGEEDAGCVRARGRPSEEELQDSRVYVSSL

In data set [2] the target is Glutamate receptor ionotropic, kainate (Rattus norvegicus) (UniProt P22756+Q01812+P42260+P42264+Q63273). The experiment in a line: Inhibition of Glutamate, Kainate at 10 µM in the Eurofins-Panlabs radioligand binding assay (Eurofins_assay_232700). The conditions noted are these: Compound concentration 10.0 uM.
The species entered for the next data set is Mus musculus. The experiment in a line: Inhibition of Phorbol Ester at 10 µM in the Eurofins-Panlabs radioligand binding assay (Eurofins_assay_264500). Particulars: Compound concentration 10.0 uM; call rule not given here. More on the design: ligand concentration 3 nM.
Data set [3] has as its target ATP-sensitive inward rectifier potassium channel 11 (Cricetulus griseus) (UniProt A0A3L7HHE1). The experiment in a line: Inhibition of Potassium Channel [KATP] at 10 µM in the Eurofins-Panlabs radioligand binding assay (Eurofins_assay_265600). The conditions noted are these: Cricetinae; Compound concentration 10.0 uM.
In data set [4] the target is Substance-P receptor (Homo sapiens) (UniProt P25103). The experiment in a line: Inhibition of Tachykinin NK1 at 10 µM in the Eurofins-Panlabs radioligand binding assay (Eurofins_assay_255520). Details: ligand concentration 0.8 nM. The conditions noted are these: Compound concentration 10.0 uM.
In data set [5] the target is Prostaglandin G/H synthase 2 (Homo sapiens) (UniProt P35354). The experiment in a line: Inhibition of Cyclooxygenase COX-2 at compound concentration of 10.0 uM in the Eurofins-Panlabs enzyme assay (Eurofins_assay_118010). More on the design: substrate with concentration 0.3 uM Arachidonic acid, incubation time 15 min, incubation temperature 37 C. Particulars: Compound concentration 10.0 uM.

For the next data set, the target named is CYP2C19 (Homo sapiens, UniProt P33261). The experiment in a line: CYP450, 2C19 Eurofins-Panlabs enzyme assay. The conditions noted are these: compound concentration 10 uM.
The target of a further data set is CYP3A4 (Homo sapiens, UniProt P08684). Nature of the data set: CYP450, 3A4 Eurofins-Panlabs enzyme assay. Particulars: compound concentration 10 uM.
The target in data set [6] is Phosphodiesterase 3 (Homo sapiens) (UniProt Q14432+Q13370). Nature of the data set: Inhibition of Phosphodiesterase PDE3 at compound concentration of 10.0 uM in the Eurofins-Panlabs enzyme assay (Eurofins_assay_152000). The format is protein assay. More on the design: substrate with concentration 1.01 uM [3H] cAMP + cAMP, incubation time 20 min, incubation temperature 25 C. The conditions noted are these: Compound concentration 10.0 uM.

In data set [7] the target is T1, Alpha-2C adrenergic receptor (Homo sapiens) (UniProt P18825).
T1 sequence (whole entry): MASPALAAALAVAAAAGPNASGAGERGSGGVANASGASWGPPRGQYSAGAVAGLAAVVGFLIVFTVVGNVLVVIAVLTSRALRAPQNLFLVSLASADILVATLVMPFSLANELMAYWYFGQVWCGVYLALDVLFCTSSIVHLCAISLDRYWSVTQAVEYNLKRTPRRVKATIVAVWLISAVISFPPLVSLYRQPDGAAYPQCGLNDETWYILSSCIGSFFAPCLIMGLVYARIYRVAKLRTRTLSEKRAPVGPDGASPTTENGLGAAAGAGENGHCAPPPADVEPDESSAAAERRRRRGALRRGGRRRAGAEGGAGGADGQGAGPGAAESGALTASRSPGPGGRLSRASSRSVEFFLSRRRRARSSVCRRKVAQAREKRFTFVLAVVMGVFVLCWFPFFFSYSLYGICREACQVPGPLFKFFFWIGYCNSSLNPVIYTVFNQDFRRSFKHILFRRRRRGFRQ
Nature of the data set: Adrenergic alpha2C Eurofins-Panlabs radioligand binding assay. More on the design: ligand concentration 1 nM, non-specific ligand with concentration 10 µM WB-4101, incubation time 60 min, incubation temperature 25 °C. The conditions noted are these: Compound concentration 10.0 uM.

In data set [8] the target is C-C chemokine receptor type 2 (Homo sapiens) (UniProt P41597). The experiment in a line: Inhibition of Chemokine CCR2B at 10 µM in the Eurofins-Panlabs radioligand binding assay (Eurofins_assay_217550). Particulars: Compound concentration 10.0 uM.
Chain of C-C chemokine receptor type 2 (Homo sapiens) (P41597 whole entry, looked up): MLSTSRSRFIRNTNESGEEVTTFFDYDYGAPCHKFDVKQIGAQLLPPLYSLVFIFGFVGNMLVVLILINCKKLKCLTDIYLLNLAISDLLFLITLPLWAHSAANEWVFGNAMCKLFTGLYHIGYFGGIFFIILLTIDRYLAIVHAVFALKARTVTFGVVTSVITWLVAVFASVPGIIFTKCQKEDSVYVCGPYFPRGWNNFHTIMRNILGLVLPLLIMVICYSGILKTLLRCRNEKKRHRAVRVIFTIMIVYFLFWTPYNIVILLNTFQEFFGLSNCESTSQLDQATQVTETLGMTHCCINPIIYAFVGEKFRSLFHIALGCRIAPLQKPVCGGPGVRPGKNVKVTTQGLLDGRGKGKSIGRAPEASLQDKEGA
Data set [9] deals with C-X-C chemokine receptor type 2 (Homo sapiens) (UniProt P25025). Nature of the data set: Inhibition of Chemokine CXCR2 (IL-8RB) at 10 µM in the Eurofins-Panlabs radioligand binding assay (Eurofins_assay_244500). Particulars: Compound concentration 10.0 uM.
Chain of C-X-C chemokine receptor type 2 (Homo sapiens) (P25025 whole entry): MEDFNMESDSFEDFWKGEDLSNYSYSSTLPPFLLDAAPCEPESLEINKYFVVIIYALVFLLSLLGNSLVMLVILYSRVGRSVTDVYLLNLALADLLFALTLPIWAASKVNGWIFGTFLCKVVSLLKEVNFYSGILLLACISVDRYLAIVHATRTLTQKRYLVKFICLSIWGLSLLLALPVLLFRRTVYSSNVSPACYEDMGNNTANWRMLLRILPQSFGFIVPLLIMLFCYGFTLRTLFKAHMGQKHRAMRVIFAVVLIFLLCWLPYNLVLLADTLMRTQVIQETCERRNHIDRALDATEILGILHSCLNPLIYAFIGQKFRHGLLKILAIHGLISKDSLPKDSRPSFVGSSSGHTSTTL
The next data set is filed under the species Rattus norvegicus. The conditions noted are these: Compound concentration 10.0 uM.
The target in data set [10] is T2, Alpha-1A adrenergic receptor (Homo sapiens) (UniProt P35348).
T2 sequence (whole entry): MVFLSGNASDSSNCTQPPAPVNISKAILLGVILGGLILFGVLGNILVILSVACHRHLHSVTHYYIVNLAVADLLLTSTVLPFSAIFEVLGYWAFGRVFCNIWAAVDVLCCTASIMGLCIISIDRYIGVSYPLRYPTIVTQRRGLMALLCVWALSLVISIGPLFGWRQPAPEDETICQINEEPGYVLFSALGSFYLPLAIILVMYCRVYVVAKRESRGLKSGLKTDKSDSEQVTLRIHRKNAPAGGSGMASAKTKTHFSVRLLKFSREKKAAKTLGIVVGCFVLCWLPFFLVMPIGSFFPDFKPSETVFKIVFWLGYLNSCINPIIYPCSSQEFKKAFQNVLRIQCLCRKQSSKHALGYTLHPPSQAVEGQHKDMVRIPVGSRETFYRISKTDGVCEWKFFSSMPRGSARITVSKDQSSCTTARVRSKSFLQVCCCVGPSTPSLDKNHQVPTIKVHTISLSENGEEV
Particulars: Rattus norvegicus; Compound concentration 10.0 uM.

Data set [11] addresses Beta-2 adrenergic receptor (Homo sapiens) (UniProt P07550). Particulars: Compound concentration 10.0 uM.
For data set [12], the target named is B2 bradykinin receptor (Homo sapiens) (UniProt P30411). Particulars: Compound concentration 10.0 uM.
Chain of B2 bradykinin receptor (Homo sapiens) (P30411 whole entry): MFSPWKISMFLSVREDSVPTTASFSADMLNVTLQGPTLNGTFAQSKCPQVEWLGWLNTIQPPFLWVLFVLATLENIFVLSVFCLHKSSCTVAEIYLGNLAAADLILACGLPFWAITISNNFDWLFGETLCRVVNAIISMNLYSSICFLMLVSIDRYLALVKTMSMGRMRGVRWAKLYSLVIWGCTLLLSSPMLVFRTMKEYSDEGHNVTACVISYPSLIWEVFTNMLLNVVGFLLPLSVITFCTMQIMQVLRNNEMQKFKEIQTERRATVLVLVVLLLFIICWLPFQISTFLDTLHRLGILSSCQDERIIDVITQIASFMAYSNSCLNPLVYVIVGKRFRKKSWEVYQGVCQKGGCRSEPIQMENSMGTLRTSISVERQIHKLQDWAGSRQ
For data set [13], the target named is Endothelin-1 receptor (Homo sapiens) (UniProt P25101). Particulars: Compound concentration 10.0 uM.
Data set [14] addresses Histamine H1 receptor (Homo sapiens) (UniProt P35367). The conditions noted are these: Compound concentration 10.0 uM.
Data set [15] has as its target Kappa-type opioid receptor (Homo sapiens) (UniProt P41145). Particulars: Compound concentration 10.0 uM.
In data set [16] the target is Mu-type opioid receptor (Homo sapiens) (UniProt P35372). The conditions noted are these: Compound concentration 10.0 uM.
Data set [17] deals with 5-hydroxytryptamine receptor 1A (Homo sapiens) (UniProt P08908). The conditions noted are these: Compound concentration 10.0 uM.
Chain of 5-hydroxytryptamine receptor 1A (Homo sapiens) (P08908 whole entry): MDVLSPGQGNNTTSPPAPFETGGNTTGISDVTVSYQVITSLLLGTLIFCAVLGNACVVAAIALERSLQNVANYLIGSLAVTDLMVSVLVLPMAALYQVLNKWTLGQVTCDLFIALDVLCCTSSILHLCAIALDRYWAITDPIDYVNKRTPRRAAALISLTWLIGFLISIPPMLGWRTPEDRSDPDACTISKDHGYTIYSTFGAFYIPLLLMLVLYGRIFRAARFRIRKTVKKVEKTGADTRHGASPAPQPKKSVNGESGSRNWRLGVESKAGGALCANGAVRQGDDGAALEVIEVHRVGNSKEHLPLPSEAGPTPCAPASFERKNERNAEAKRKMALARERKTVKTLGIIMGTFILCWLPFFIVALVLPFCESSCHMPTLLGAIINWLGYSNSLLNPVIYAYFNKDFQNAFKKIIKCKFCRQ
The target in data set [18] is 5-hydroxytryptamine receptor 2B (Homo sapiens) (UniProt P41595). The conditions noted are these: Compound concentration 10.0 uM.
The target in data set [19] is Acetylcholinesterase (Homo sapiens) (UniProt P22303). The conditions noted are these: Compound concentration 10.0 uM.
Chain of Acetylcholinesterase (Homo sapiens) (P22303 whole entry): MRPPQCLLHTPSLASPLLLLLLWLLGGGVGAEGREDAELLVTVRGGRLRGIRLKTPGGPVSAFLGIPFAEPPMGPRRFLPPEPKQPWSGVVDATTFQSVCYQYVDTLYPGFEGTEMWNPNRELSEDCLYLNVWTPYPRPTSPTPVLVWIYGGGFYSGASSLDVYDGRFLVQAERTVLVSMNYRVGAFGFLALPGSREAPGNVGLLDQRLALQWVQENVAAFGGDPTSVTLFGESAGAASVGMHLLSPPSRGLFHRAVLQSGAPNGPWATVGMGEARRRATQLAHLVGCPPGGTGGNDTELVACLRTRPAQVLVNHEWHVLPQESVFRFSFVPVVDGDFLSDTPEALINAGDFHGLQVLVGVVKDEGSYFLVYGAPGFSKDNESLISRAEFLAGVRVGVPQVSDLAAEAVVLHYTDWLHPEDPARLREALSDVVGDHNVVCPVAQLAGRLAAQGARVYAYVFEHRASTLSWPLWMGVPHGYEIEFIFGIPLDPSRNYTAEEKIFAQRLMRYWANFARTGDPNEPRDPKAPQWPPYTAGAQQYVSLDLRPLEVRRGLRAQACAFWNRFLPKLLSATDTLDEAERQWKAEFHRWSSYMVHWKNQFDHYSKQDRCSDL
Data set [20] has as its target GABA-A receptor; anion channel (Rattus norvegicus) (UniProt O09028+P15431+P18506+P18508+P19969+P20236+P23574+P23576+P28471+P28473+P30191+P62813+P63079+P63138+Q91ZM7+Q9ES14). Particulars: Compound concentration 10.0 uM.
Data set [21] addresses Gonadotropin-releasing hormone receptor (Homo sapiens, UniProt P30968). The experiment in a line: Mechanistic assay measuring cellular IP1. Format: functional.
In data set [22] the target is D(2) dopamine receptor (Homo sapiens) (UniProt P14416). Particulars: Compound concentration 10.0 uM.
Chain of D(2) dopamine receptor (Homo sapiens) (P14416 whole entry): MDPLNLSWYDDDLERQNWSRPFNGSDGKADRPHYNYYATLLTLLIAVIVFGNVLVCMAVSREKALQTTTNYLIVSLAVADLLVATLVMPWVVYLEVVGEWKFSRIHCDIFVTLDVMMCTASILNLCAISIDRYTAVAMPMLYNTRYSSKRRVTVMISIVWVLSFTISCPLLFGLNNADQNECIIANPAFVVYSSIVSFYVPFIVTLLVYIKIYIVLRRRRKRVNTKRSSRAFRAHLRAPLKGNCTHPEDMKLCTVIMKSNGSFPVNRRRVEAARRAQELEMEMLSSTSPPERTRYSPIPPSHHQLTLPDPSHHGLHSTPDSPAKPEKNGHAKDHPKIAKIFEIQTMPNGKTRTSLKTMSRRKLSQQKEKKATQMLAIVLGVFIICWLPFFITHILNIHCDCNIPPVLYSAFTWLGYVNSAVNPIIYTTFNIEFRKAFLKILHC
The target of data set [23] is Sodium-dependent dopamine transporter (Homo sapiens) (UniProt Q01959). The conditions noted are these: Compound concentration 10.0 uM.

As a reminder, the inhibition is the relative decrease from the control value, in per cent. `O=C(NCc1ncc(C(F)(F)F)cc1Cl)c1ccc2c(c1)C1(CCS(=O)(=O)CC1)[C@H](C1CC1)N2S(=O)(=O)c1ccc(F)cc1` [BAY-784]: in data set [1], the inhibition at 90 min, 10 µM is 26% (not active). In addition, the inhibition in [2] was 1%; in the data set filed under Mus musculus it was 1%; in [3], 0%; in [4], 26%; in data set [5], 4%; in data set [6] it was 9%. The inhibition was 3% in [7]; -1% in data set [8]; 14% in [9]; 7.97% in the data set listed under Rattus norvegicus; 7% in data set [10]; -4% in [11]. In addition, the inhibition is 9% in [12]; 16% in data set [13]; 9% in data set [14]; 7% in data set [15]; 16% in [16]; 0% in data set [17]. The inhibition was 4% in data set [18], 56% in data set [19] and 34% in data set [20]. For the same compound, the inhibition at 10 µM against CYP2C19 is on record as 36% (not active); at CYP3A4, 38% (not active).
The IC50 is the concentration at which inhibition is half-maximal. Regarding `O=C(NCc1ncc(C(F)(F)F)cc1Cl)c1ccc2c(c1)C1(CCS(=O)(=O)CC1)[C@@H](C1CC1)N2S(=O)(=O)c1ccc(F)cc1` [BAY-786], the concentration for half-maximal inhibition (IC50) in data set [21] was 2400 nM (not active). In addition, the inhibition in data set [22] was -8.4%; in data set [23], -4.64%.
